Experimental data as given in patent publication US20170129916A1, “NOVEL BETULINIC PROLINE IMIDAZOLE DERIVATIVES AS HIV INHIBITORS” (HETERO RESEARCH FOUNDATION, priority 2014, published 2017).

Legend:
[1] = test system: HIV-1 strains, for e.g., 92HT599; test: Antiviral activity: p24 estimation in MT-2 cells infected with HIV-1; type: cell-based; settings: Human immunodeficiency virus 1, MT2, MT-2 cells infected with HIV-1, p24, ~96 hours; for IC50: read-out: Antiviral activity IC50 (nM) Efficacy IC50
Description: MT-2 cells were infected with required number of TCID50's of HIV-1 strains, for e.g., 92HT599. The infected cells were plated at the concentration of 30, 000 cells per well in a 96 well plate. Test compound was added to the 96 well plate with the final concentration of DMSO (vehicle—not more than 1%). The plates are then incubated in a CO2 incubator for ˜96 hours (˜4 days) for viral infection. At the end of incubation period an aliquot from each well was taken for p24 estimation. The quantitation of p24 is an estimated index for antiviral activity of the compound. Percent inhibition was calculated with reference to control values (vehicle controls).
p-24 estimation was carried out using Advance biosciences kit as per the procedure detailed by supplier.

[2] = Single dose oral pharmacokinetic study; type: in vivo; settings: mouse, mice, 30 mg/kg, plasma; for AUC(0-t): read-out: Mice oral PK @30 mg/kg AUC 0-t; for Cmax: read-out: Mice oral PK @30 mg/kg Cmax
Method in brief: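 Rats or mice received 30 mg/kg orally at 10 ml/kg dose volume. Retro-orbital blood was taken into K3 EDTA at defined intervals under light ether anesthesia and centrifuged to plasma. Plasma levels were measured by LC-MS-MS.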

## C=C(C)[C@@H]1CC[C@]2(C(=O)N3CCC[C@H]3c3ncc(-c4ccccc4)[nH]3)CC[C@]3(C)[C@H](CC[C@@H]4[C@@]5(C)CC[C@H](OC(=O)c6ccc(OC(C)(C)C(=O)O)cc6)C(C)(C)[C@@H]5CC[C@]43C)[C@@H]12 [Compound 23, 2-methyl-2-(4-((((1R,3aS,5aR,5bR,7aR,9S,11aR,11bR,13aR,13bR)-5a,5b,8,8,11a-pentamethyl-3a-((S)-2-(5-phenyl-1H-imidazol-2-yl)pyrrolidine-1-carbonyl)-1-(prop-1-en-2-yl)icosahydro-1H-cyclopenta[a]chrysen-9-yl)oxy)carbonyl)phenoxy)propanoic acid]
[1]
  IC50: 0.7 nM
[2]
  AUC(0-t): 302 µg·h/mL
  Cmax: 10600 ng/mL

## C=C(C)[C@@H]1CC[C@]2(C(=O)N3CCC[C@H]3c3nnc(-c4ccccc4)[nH]3)CC[C@]3(C)[C@H](CC[C@@H]4[C@@]5(C)CC[C@H](OC(=O)[C@H]6C[C@@H](C(=O)O)C6(C)C)C(C)(C)[C@@H]5CC[C@]43C)[C@@H]12 [Compound 24, (1R,3S)-2,2-dimethyl-3-((((1R,3aS,5aR,5bR,7aR,9S,11aR,11bR,13aR,13bR)-5a,5b,8,8,11a-pentamethyl-3a-((S)-2-(5-phenyl-4H-1,2,4-triazol-3-yl)pyrrolidine-1-carbonyl)-1-(prop-1-en-2-yl)icosahydro-1H-cyclopenta[a]chrysen-9-yl)oxy)carbonyl)cyclobutane-1-carboxylic acid]
[1]
  IC50: 9.06 nM
[2]
  AUC(0-t): 439 µg·h/mL
  Cmax: 12200 ng/mL

## C=C(C)[C@@H]1CC[C@]2(C(=O)N3CCC[C@H]3c3nc(-c4cccc(Cl)c4)c[nH]3)CC[C@]3(C)[C@H](CC[C@@H]4[C@@]5(C)CC[C@H](OC(=O)[C@H]6C[C@@H](C(=O)O)C6(C)C)C(C)(C)[C@@H]5CC[C@]43C)[C@@H]12 [Compound 28, (1R,3S)-3-((((1R,3aS,5aR,5bR,7aR,9S,11aR,11bR,13aR,13bR)-3a-((S)-2-(4-(3-chlorophenyl)-1H-imidazol-2-yl)pyrrolidine-1-carbonyl)-5a,5b,8,8,11a-pentamethyl-1-(prop-1-en-2-yl)icosahydro-1H-cyclopenta[a]chrysen-9-yl)oxy)carbonyl)-2,2-dimethylcyclobutane-1-carboxylic acid]
[1]
  inhibition at 0.1 µM: 54%
  inhibition at 1 µM: 99%
  IC50: 19.4 nM
[2]
  AUC(0-t): 248 µg·h/mL
  Cmax: 10000 ng/mL

## C=C(C)[C@@H]1CC[C@]2(C(=O)N3C[C@H](O)C[C@H]3c3nc(-c4ccccc4)c[nH]3)CC[C@]3(C)[C@H](CC[C@@H]4[C@@]5(C)CC[C@H](OC(=O)[C@H]6C[C@@H](C(=O)O)C6(C)C)C(C)(C)[C@@H]5CC[C@]43C)[C@@H]12 [Compound 29, (1R,3S)-3-((((1R,3aS,5aR,5bR,7aR,9S,11aR,11bR,13aR,13bR)-3a-((2S,4R)-4-hydroxy-2-(4-phenyl-1H-imidazol-2-yl)pyrrolidine-1-carbonyl)-5a,5b,8,8,11a-pentamethyl-1-(prop-1-en-2-yl)icosahydro-1H-cyclopenta[a]chrysen-9-yl)oxy)carbonyl)-2,2-dimethyl cyclobutane-1-carboxylic acid]
[1]
  inhibition at 0.1 µM: 99%
  inhibition at 1 µM: 99%
  IC50: 12.3 nM
[2]
  AUC(0-t): 57.5 µg·h/mL
  Cmax: 4500 ng/mL

## C=C(C)[C@@H]1CC[C@]2(C(=O)N3C[C@H](OCCOC)C[C@H]3c3nc(C(C)(C)C)c[nH]3)CC[C@]3(C)[C@H](CC[C@@H]4[C@@]5(C)CC[C@H](OC(=O)[C@H]6C[C@@H](C(=O)O)C6(C)C)C(C)(C)[C@@H]5CC[C@]43C)[C@@H]12 [Compound 31, (1R,3S)-3-((((1R,3aS,5aR,5bR,7aR,9S,11aR,11bR,13aR,13bR)-3a-((2S,4R)-2-(4-(tert-butyl)-1H-imidazol-2-yl)-4-(2-methoxyethoxy)pyrrolidine-1-carbonyl)-5a,5b,8,8,11a-pentamethyl-1-(prop-1-en-2-yl)icosahydro-1H-cyclopenta[a]chrysen-9-yl)oxy)carbonyl)-2,2-dimethylcyclobutane-1-carboxylic acid]
[1]
  inhibition at 0.1 µM: 100%
  inhibition at 1 µM: 100%
  IC50: 19.7 nM
[2]
  AUC(0-t): 195 µg·h/mL
  Cmax: 9200 ng/mL

## C=C(C)[C@@H]1CC[C@]2(C(=O)N3C[C@H](OC)C[C@H]3c3nc(-c4ccccc4)c[nH]3)CC[C@]3(C)[C@H](CC[C@@H]4[C@@]5(C)CC[C@H](OC(=O)[C@H]6C[C@@H](C(=O)O)C6(C)C)C(C)(C)[C@@H]5CC[C@]43C)[C@@H]12 [Compound 32, (1R,3S)-3-((((1R,3aS,5aR,5bR,7aR,9S,11aR,11bR,13aR,13bR)-3a-((2S,4R)-4-methoxy-2-(4-phenyl-1H-imidazol-2-yl)pyrrolidine-1-carbonyl)-5a,5b,8,8,11a-pentamethyl-1-(prop-1-en-2-yl)icosahydro-1H-cyclopenta[a]chrysen-9-yl)oxy)carbonyl)-2,2-dimethylcyclobutane-1-carboxylic acid]
[1]
  inhibition at 0.1 µM: 60%
  inhibition at 1 µM: 99%
  IC50: 23.3 nM
[2]
  AUC(0-t): 316 µg·h/mL
  Cmax: 13900 ng/mL

## C=C(C)[C@@H]1CC[C@]2(C(=O)N3CCC[C@H]3c3ncc(C(F)(F)F)[nH]3)CC[C@]3(C)[C@H](CC[C@@H]4[C@@]5(C)CC[C@H](OC(=O)[C@H]6C[C@@H](C(=O)O)C6(C)C)C(C)(C)[C@@H]5CC[C@]43C)[C@@H]12 [Compound 34, (1R,3S)-2,2-dimethyl-3-((((1R,3aS,5aR,5b,7aR,9S,11aR,11bR,13aR,13bR)-5a,5b,8,8,11a-pentamethyl-1-(prop-1-en-2-yl)-3a-((S)-2-(5-(trifluoromethyl)-1H-imidazol-2-yl)pyrrolidine-1-carbonyl)icosahydro-1H-cyclopenta[a]chrysen-9-yl)oxy)carbonyl)cyclobutane-1-carboxylic acid]
[1]
  inhibition at 0.1 µM: 86%
  inhibition at 1 µM: 100%
  IC50: 6.66 nM
[2]
  AUC(0-t): 417 µg·h/mL
  Cmax: 18700 ng/mL

## C=C(C)[C@@H]1CC[C@]2(C(=O)N3CCC[C@H]3c3nc(C)c(C)[nH]3)CC[C@]3(C)[C@H](CC[C@@H]4[C@@]5(C)CC[C@H](OC(=O)[C@H]6C[C@@H](C(=O)O)C6(C)C)C(C)(C)[C@@H]5CC[C@]43C)[C@@H]12 [Compound 35, (1R,3S)-3-((((1R,3aS,5aR,5bR,7aR,9S,11aR,11bR,13aR,13bR)-3a-((S)-2-(4,5-dimethyl-1H-imidazol-2-yl)pyrrolidine-1-carbonyl)-5a,5b,8,8,11a-pentamethyl-1-(prop-1-en-2-yl)icosahydro-1H-cyclopenta[a]chrysen-9-yl)oxy)carbonyl)-2,2-dimethylcyclobutane-1-carboxylic acid]
[1]
  inhibition at 0.1 µM: 100%
  inhibition at 1 µM: 100%
  IC50: 2.81 nM
[2]
  AUC(0-t): 250 µg·h/mL
  Cmax: 14000 ng/mL

## C=C(C)[C@@H]1CC[C@]2(C(=O)N3CCC[C@H]3c3ncc[nH]3)CC[C@]3(C)[C@H](CC[C@@H]4[C@@]5(C)CC[C@H](OC(=O)[C@H]6C[C@@H](C(=O)O)C6(C)C)C(C)(C)[C@@H]5CC[C@]43C)[C@@H]12 [Compound 36, (1R,3S)-3-((((1R,3aS,5aR,5bR,7aR,9S,11aR,11bR,13aR,13bR)-3a-((S)-2-(1H-imidazol-2-yl)pyrrolidine-1-carbonyl)-5a,5b,8,8,11a-pentamethyl-1-(prop-1-en-2-yl)icosahydro-1H-cyclopenta[a]chrysen-9-yl)oxy)carbonyl)-2,2-dimethylcyclobutane-1-carboxylic acid]
[1]
  inhibition at 0.1 µM: 98%
  inhibition at 1 µM: 100%
  IC50: 1.22 nM
[2]
  AUC(0-t): 158 µg·h/mL
  Cmax: 10800 ng/mL
